Test results taken from US20260315653A1, “ANTICOAGULANT COMPOSITIONS COMPRISING ANTI-PLATELET AND ANTI-INFLAMMATORY DRUGS AND METHODS AND DEVICES FOR THEIR USE” (Elixir Medical Corporation, priority 2023, published 2026).
“Also recorded” adds a separate entry of the source.

Key:
[1] = system: platelets (Tissue factor generated antiplatelet); conditions: cited from earlier work
[2] = system: blood clotting (citrated sheep blood); assay: Net activated clotting time (net ACT) in citrated sheep blood (Examples 3-5); design: key: seconds; measured ACT minus blood control ACT (165 s); conditions: single drug, blood control 165 seconds
Method: The activated clotting time (ACT) evaluation of anticoagulants was performed in calcium citrate sheep blood and recorded employing the Hemochron® Response device. The ACT measurements were made in citrated sheep blood. 1.9 ml of citrated sheep blood was added to a test tube containing an activator (Hemochron@Celite@ ACT tubes, Lot F8FTE026 from Accriva Diagnostics, Inc.). A target amount of drug solution was then added into the test tube. The test tube was gently swirled so that the blood and drug were well-mixed. 0.1 ml of 0.3M calcium chloride was then added. The tube was gently shaken before being inserted into the Hemochron Response detector. The ACT read out was recorded and reported. The ACT of the control blood in the absence of any drug as first determined to establish a baseline. Here the blood control measured is 165 seconds. Then ACT was determined in the presence of different concentrations of the drug as a single component. In the following study, the net ACT (measured ACT minus blood control ACT) was utilized to visualize the synergistic effect of direct factor Xa inhibitor (Rivaroxaban) and direct factor IIa inhibitor (Argatroban) drug combinations. The figures are presented in ng/mg wherein the density of blood and tissue are approximately the same.
Example 4 is the continuation of example 3, which employed the same method as in example 3. The only difference is that the direct factor Xa inhibitor Edoxaban is used in place of direct factor Xa inhibitor Rivaroxaban.
Example 5 is the continuation of example 3, which employed the same method as in example 3. The only difference is that the direct factor Xa inhibitor Betrixaban is used in place of direct factor Xa inhibitor Rivaroxaban.

[3] = system: blood clotting (heparinized sheep blood); assay: Net ACT initiated by platelet activation factor (PAF) and CaCl2 in heparinized sheep blood (Examples 6-11); conditions: single drug, 0.05 ng/mg; PAF & CaCl2; blood control 235 seconds
Method: In order to examine the potential synergistic effects between anti-inflammatory agents, direct factor Xa inhibitors, direct factor IIa inhibitors, antiplatelets (P2Y12 inhibitor and glycoprotein IIb/IIIa inhibitor, platelet activation factor and CaCl2 were utilized by measuring ACT. Heparinized sheep blood was used to preserve platelet function.
The activated clotting time (ACT) evaluation initiated by platelet activation factor (PAF) and calcium chloride (CaCl2) was performed in heparinized sheep blood and recorded employing the Hemochron® Response device. […] A target amount of drug solution was then added into the test tube. The test tube was gently swirled so that the blood and drug were well-mixed. […] The tube was gently shaken before being inserted into the Hemochron Response detector. The ACT read out was recorded and reported. The ACT of the control heparinized sheep blood in the absence of any drug as first measured to establish a baseline. […] Then ACT was measured in the presence of different concentrations of the drug measured. Selected drug combinations were then tested to evaluate for potential synergy in action between the drug combination. The net ACT (ACT minus blood control ACT) was utilized to visualize the synergistic effect. […] The figures are presented in ng/mg wherein the density of blood and tissue are approximately the same.

[4] = In vivo drug release from / drug remaining on implanted stents (HPLC); design: species or system porcine; conditions: 7 days, n = 5
Method: The percentage and/or amount of each anticoagulant drug for or by each time point indicated were analyzed for each stent from the different devices in the example and the average drug tissue concentration reported.
Tissue concentrations and the amount of drug released from the stents were measured using stents implanted in porcine arteries for the drugs as indicated. The arteries at the designated time point were excised and a length of stented artery spanning from 5 mm proximal to the stented segment to 5 mm distal to the stented segment was cut. The stented artery was cut longitudinally with surgical scissors. The stents were separated from the tissue. The tissue content of each drug was analyzed using liquid chromatography mass spectroscopy (LCMS) and reported as a mean for each of the timepoint indicated. For drug remaining on each stent, each drug was extracted from the stent, measured using HPLC, and reported as a mean for each of the timepoint indicated as drug released or drug remaining on a stent (where drug remaining is equal to 100% minus the percentage of drug released).

[5] = system: porcine coronary artery; assay: In vivo porcine coronary stent implantation: fibrin score and late lumen loss (Examples 25-26); conditions: for inhibition of fibrin formation compared to control: Table 10, 7 days and 28 days
Method: The drug eluting stent systems containing different anticoagulants prepared as described in Example 11 were evaluated at 3 hours, 6 hours, 1 day, 3 days, 6 days, 7 days, or 28 days following implantation in a porcine coronary artery model.
The porcine model was chosen as this model has been used extensively for stent and angioplasty studies resulting in a large volume of data on the vascular response properties and its correlation to human vascular response (Schwartz et al, Circulation. 2002; 106:1867 1873). The animals were housed and cared for in accordance with the Guide for the Care and Use of Laboratory Animals as established by the National Research Council.
After induction of anesthesia, the left or right femoral artery was accessed using standard techniques and an arterial sheath was introduced and advanced into the artery. Vessel angiography was performed under fluoroscopic guidance, a 7 Fr. guide catheter was inserted through the sheath and advanced to the appropriate location where intracoronary nitroglycerin was administered. An appropriate implantation segment of coronary artery was randomly selected and a 0.014″ guidewire inserted. Quantitative Coronary Angiography (QCA) was performed to document the results. The appropriately size stent was advanced to the deployment site. The balloon was inflated at a steady rate to a pressure sufficient to achieve a balloon to artery ratio of approximately 1.1 to 1.0.
Follow up angiography was performed at the designated timepoint for each of the animals. Late lumen loss (LLL) can be expressed as: […]
The LLL is an indicator of the amount smooth muscle cell (SMC) proliferation or inhibition. It is used to measure efficacy between drugs for SMC proliferation inhibition. The smaller the LLL, the better the efficacy of the drug.
Stented portions of coronary arteries were embedded in methyl methacrylate (MMA), then divided into a target of at least three blocks of approximately similar lengths for histology evaluation. Quantitative histopathological evaluation of stented artery sections was then performed and scored as indicated. For Fibrin formation, scores ranged from 0 to 3, with a score of 0 indicating absent or rare minimal spotting around struts of the stent, a score of 1 indicating the presence of fibrin in small amounts localized only around the struts, a score of 2 indicating the moderately abundant or denser presence of fibrin around and extending beyond the struts, and a score of 3 indicating the presence of abundant and dense fibrin and/or bridging of the fibrin between the struts. The mean score was calculated and reported. The mean of each section was then averaged to provide a mean fibrin score per stent. The smaller the fibrin score, the better efficacy.

[6] = system: blood clotting (citrated sheep blood); assay: Activated clotting time (ACT) in citrated sheep blood (Example 2); conditions: single drug, 0.6 ng/mg
Method: The activated clotting time (ACT) evaluation of anticoagulants was performed in calcium citrate sheep blood and recorded employing the Hemochron® Response device.
The ACT measurements were made in citrated sheep blood. 1.9 ml of citrated sheep blood was added to a test tube containing an activator (Hemochron@Celite@ ACT tubes, Lot F8FTE026 from Accriva Diagnostics, Inc.). A target amount of drug solution was then added into the test tube. The test tube was gently swirled so that the blood and drug was well-mixed. 0.1 ml of 0.3M calcium chloride was then added. The tube was gently shaken before being inserted into the Hemochron Response detector. The ACT read out was recorded and reported. The ACT of the control blood in the absence of any drug as first determined to establish a baseline. Then ACT was determined in the presence of different concentrations of the drug as a single component. Selected drug combinations were then tested to evaluate for potential synergy in action between the two drugs.

SMILES	IC50 [1] [nM]	IC50 for Tissue factor generated antiplatelet [1] [ng/mg]	net ACT ([2]; 0.15 ng/mg)	net ACT ([2]; 0.3 ng/mg)	net ACT [3] [s]	Cumulative Percent Release of drug: Rivaroxaban [4]	Cumulative Percent Release of drug: Rivaroxaban ([4]; listed as Rivamomaban)	inhibition of fibrin formation compared to bare metal control stents ([5]; Table 9, day 7)	inhibition of fibrin formation compared to control [5]	inhibition of fibrin formation compared to control ([5]; listed as Rivamomaban)	ACT [6]
O=C(NC[C@H]1CN(c2ccc(N3CCOCC3=O)cc2)C(=O)O1)c1ccc(Cl)s1 [Rivaroxaban]	312	0.136	114	139	166	at least 88.9%	at least 99.7%	effective at inhibiting fibrin formation	effective at inhibiting fibrin formation compared to control at 7 days and at 28 days when it was released at a faster rate and/or at a larger dose; also recorded: not effective at inhibiting fibrin formation compared to control at 28 days when it was released at a slower rate and/or at a smaller dose; also recorded: more effective at inhibiting fibrin formation compared to control at 7 days and at 28 days; also recorded: not effective at inhibiting fibrin formation compared to control at 28 days	more effective at inhibiting fibrin formation compared to control at 7 days and at 28 days	–
COc1ccc(-n2nc(C(N)=O)c3c2C(=O)N(c2ccc(N4CCCCC4=O)cc2)CC3)cc1 [Apixaban]	–	–	–	–	–	–	–	–	–	–	522
